The source of these data is patent publication US20120328565A1, “ANTIVIRAL COMPOUNDS” (priority 2011, published 2012).

Structures are written as SMILES.

The subject of the test is HCV GT-1b Con1 subgenomic replicon. In words: HCV GT1b replicon luciferase reporter assay (2209-23 cells). The format is cell-based. Particulars: Hepatitis C virus, 2209-23 cell line (Huh-7 with GT-1b Con1 subgenomic replicon), Renilla luciferase read 72 hours after compound addition. The text has this: Determination of compounds HCV GT1b inhibitory replicon activity using the replicon luciferase reporter assay
The 2209-23 cell line was developed at Roche by stable transfection of the hepatoma cell line Huh-7 with a GT-1b Con1 subgenomic bicistronic replicon as previously described. Subgenomic replicon cell line was established in cured Huh7 cells, obtained from R. Bartenschlager (J. Virol. 2003 March; 77 (5):3007-19) The GT-1a H77 subgenomic replicon vector pRLuc H771b 75 S/I, was created by replacing the non structural region of the GT-1b Con1 subgenomic replicon by the one of the H77 strain, except for the first 75 amino acids of the NS3 protein that are from GT-1b Con1 strain. (J. Virol. 2001 77:5352-59) The GT-1a pRLuc H771b 75 S/I subgenomic replicon cell line was established in cured Huh7 cells, obtained from R. Bartenschlager. (J. Virol. 2003 March; 77 (5):3007-19)
All the subgenomic replicon cell lines were cultured in Dulbecco's Modified Eagle Medium (DMEM-Glutamax™-I; Invitrogen Cat #10569-010). The medium was supplemented with 10% Fetal Bovine Serum (Invitrogen Cat #10082-147), 1% penicillin/streptomycin (Mediatech Cat #30-002-CI) and 500 μg/ml of G418 (Mediatech Cat #30-234-CI). Cells were maintained at 37° C. in a humidified 5% CO2 atmosphere.
2209-23 cells were plated at a cell density of 5000 cells per well in 96 well plates (Becton Dickinson, Cat #35 3296). Cells were plated in 90 μl of Dulbecco's Modified Eagle Medium (DMEM-Glutamax™-I), (Invitrogen Cat #10569-010) medium was supplemented with 5% Fetal Bovine Serum (Invitrogen Cat #10082-147), 1% penicillin/streptomycin (Mediatech Cat #30-002-CI). The pRluc H771b 75 S/I cells were plated in 96-well plate at 3000 cells/well in DMEM-Glutamax™-I containing 5% FBS and 1% penicillin/streptomycin in 90 μl final volume. Cells were allowed to equilibrate for 24 hours at 37° C. and 5% CO2 at which time compounds were added. Compounds (or medium as a control) were added 24 hours post-plating in 3 fold dilutions at a final DMSO concentration of 1% in 10 ul volume. Renilla luciferase reporter signal was read 72 hours after addition of compounds using the Renilla Luciferase Assay System (Promega, cat #E2820). EC50 values were defined as the compound concentration at which a 50% reduction in the levels of renilla luciferase reporter was observed as compared to control samples in the absence of compound and was determined by non-linear fitting of compound dose-response data. The EC50 was approximated if maximum percentage inhibition was less than 90% and more than 70%.
(In general: In antiviral work, replicon cells carry a viral genome segment that copies itself.)

For orientation: IC50 means the concentration that inhibits the measured activity by half. As to `COC(=O)N[C@H](C(=O)N1CCC[C@H]1C(=O)NC(=O)Nc1ccc(-c2ccc(-c3cnc([C@@H]4CCCN4C(=O)[C@@H](NC(=O)OC)C(C)C)[nH]3)cc2)cc1)C(C)C` [Compound I-1, ((S)-1-{(S)-2-[3-(4′-{2-[(S)-1-((S)-2-Methoxycarbonylamino-3-methyl-butyryl)-pyrrolidin-2-yl]-3H-imidazol-4-yl}-biphenyl-4-yl)-ureidocarbonyl]-pyrrolidine-1-carbonyl}-2-methyl-propyl)-carbamic acid methyl ester], the 50% inhibitory concentration (IC50) was found to be 0.463 nM.

As to `COC(=O)N[C@H](C(=O)N1CCC[C@H]1C(=O)NC(=O)Nc1cccc(-c2ccc(-c3cnc([C@@H]4CCCN4C(=O)[C@@H](NC(=O)OC)C(C)C)[nH]3)cc2)c1)C(C)C` [Compound I-2, ((S)-1-{(S)-2-[3-(4′-{2-[(S)-1-((S)-2-Methoxycarbonylamino-3-methyl-butyryl)-pyrrolidin-2-yl]-3H-imidazol-4-yl}-biphenyl-3-yl)-ureidocarbonyl]-pyrrolidine-1-carbonyl}-2-methyl-propyl)-carbamic acid methyl ester], the IC50 was found to be 8.42 nM.

Compound `COC(=O)N[C@H](C(=O)N1CCC[C@H]1c1ncc(-c2ccc(-c3ccc(NC(=O)NC(=O)[C@@H]4CCCN4C(=O)[C@H](NC(=O)OC)c4ccccc4)cc3)cc2)[nH]1)C(C)C` [Compound I-3, ((S)-1-{(S)-2-[5-(4′-{3-[(S)-1-((R)-2-Methoxycarbonylamino-2-phenyl-acetyl)-pyrrolidine-2-carbonyl]-ureido}-biphenyl-4-yl)-1H-imidazol-2-yl]-pyrrolidine-1-carbonyl}-2-methyl-propyl)-carbamic acid methyl ester] displayed a half-inhibitory concentration (IC50) of 0.009 nM.

Compound `COC(=O)N[C@H](C(=O)N1CCC[C@H]1c1ncc(-c2ccc(-c3ccc(NC(=O)NC(=O)[C@@H]4CCCN4C(=O)[C@@H](c4ccccc4)N(C)C)cc3)cc2)[nH]1)C(C)C` [Compound I-4, ((S)-1-{(S)-2-[5-(4′-{3-[(S)-1-((R)-2-Dimethylamino-2-phenyl-acetyl)-pyrrolidine-2-carbonyl]-ureido}-biphenyl-4-yl)-1H-imidazol-2-yl]-pyrrolidine-1-carbonyl}-2-methyl-propyl)-carbamic acid methyl ester] had a 50% inhibitory concentration (IC50) of 0.007 nM.

With `COC(=O)N[C@H](C(=O)N1CCC[C@H]1C(=O)NC(=O)NCc1ccc(-c2ccc(-c3cnc([C@@H]4CCCN4C(=O)[C@@H](NC(=O)OC)C(C)C)[nH]3)cc2)cc1)C(C)C` [Compound I-5, ((S)-1-{(S)-2-[5-(4′-{3-[(S)-1-((S)-2-Methoxycarbonylamino-3-methyl-butyryl)-pyrrolidine-2-carbonyl]-ureidomethyl}-biphenyl-4-yl)-1H-imidazol-2-yl]-pyrrolidine-1-carbonyl}-2-methyl-propyl)-carbamic acid methyl ester], half-maximal inhibition (IC50) required 1.98 nM.

The compound `COC(=O)N[C@H](C(=O)N1CCC[C@H]1c1ncc(-c2ccc(-c3ccc(CNC(=O)NC(=O)[C@@H]4CCCN4C(=O)[C@H](NC(=O)OC)c4ccccc4)cc3)cc2)[nH]1)C(C)C` [Compound I-6, ((S)-1-{(S)-2-[5-(4′-{3-[(S)-1-((R)-2-Methoxycarbonylamino-2-phenyl-acetyl)-pyrrolidine-2-carbonyl]-ureidomethyl}-biphenyl-4-yl)-1H-imidazol-2-yl]-pyrrolidine-1-carbonyl}-2-methyl-propyl)-carbamic acid methyl ester] returned a half-inhibitory concentration (IC50) of 6.74 nM.

On to `COC(=O)N[C@H]1CCC(=O)N2CCC[C@@H](c3ncc(-c4ccc(-c5ccc(NC(=O)NC(=O)[C@@H]6CCCN6C(=O)[C@H](NC(=O)OC)c6ccccc6)cc5)cc4)[nH]3)N2C1=O` [Compound I-7, {(4S,7S)-4-[5-(4′-{3-[(S)-1-((R)-2-Methoxycarbonylamino-2-phenyl-acetyl)-pyrrolidine-2-carbonyl]-ureido}-biphenyl-4-yl)-1H-imidazol-2-yl]-6,10-dioxo-octahydro-pyridazino[1,2-a][1,2]diazepin-7-yl}-carbamic acid methyl ester], for which inhibition was half-maximal at 0.427 nM (IC50).

For the compound `COC(=O)N[C@H](C(=O)N1CCC[C@H]1c1ncc(-c2ccc(-c3nc4ccc(NC(=O)NC(=O)[C@@H]5CCCN5C(=O)OC(C)(C)C)cc4s3)cc2)[nH]1)C(C)C` [Compound I-8, (S)-2-{3-[2-(4-{2-[(S)-1-((S)-2-Methoxycarbonylamino-3-methyl-butyryl)-pyrrolidin-2-yl]-3H-imidazol-4-yl}-phenyl)-benzothiazol-6-yl]-ureidocarbonyl}-pyrrolidine-1-carboxylic acid tert-butyl ester], half-maximal inhibition (IC50) was put at 7.75 nM.

`COC(=O)N[C@H](C(=O)N1CCC[C@H]1C(=O)NC(=O)Nc1ccc2nc(-c3ccc(-c4cnc([C@@H]5CCCN5C(=O)[C@@H](NC(=O)OC)C(C)C)[nH]4)cc3)sc2c1)C(C)C` [Compound I-9, [(S)-1-((S)-2-{5-[4-(6-{3-[(S)-1-((S)-2-Methoxycarbonylamino-3-methyl-butyryl)-pyrrolidine-2-carbonyl]-ureido}-benzothiazol-2-yl)-phenyl]-1H-imidazol-2-yl}-pyrrolidine-1-carbonyl)-2-methyl-propyl]-carbamic acid methyl ester] returned a concentration for half-maximal inhibition (IC50) of 0.344 nM.

In turn, `COC(=O)N[C@H](C(=O)N1CCC[C@H]1c1ncc(-c2ccc(-c3ccc(NC(=O)NC(=O)[C@@H]4CCCN4C(=O)[C@H](NC(=O)OC)c4ccccc4)cn3)cc2)[nH]1)C(C)C` [Compound I-10, [(S)-1-((S)-2-{5-[4-(5-{3-[(S)-1-((R)-2-Methoxycarbonylamino-2-phenyl-acetyl)-pyrrolidine-2-carbonyl]-ureido}-pyridin-2-yl)-phenyl]-1H-imidazol-2-yl}-pyrrolidine-1-carbonyl)-2-methyl-propyl]-carbamic acid methyl ester] came in with an IC50 of 0.041 nM.

`COC(=O)N[C@H](C(=O)N1CCC[C@H]1c1ncc(-c2ccc(-c3nc4ccc(NC(=O)NC(=O)[C@@H]5CCCN5C(=O)[C@@H](c5ccccc5)N(C)C)cc4s3)cc2)[nH]1)C(C)C` [Compound I-11, [(S)-1-((S)-2-{5-[4-(6-{3-[(S)-1-((R)-2-Dimethylamino-2-phenyl-acetyl)-pyrrolidine-2-carbonyl]-ureido}-benzothiazol-2-yl)-phenyl]-1H-imidazol-2-yl}-pyrrolidine-1-carbonyl)-2-methyl-propyl]-carbamic acid methyl ester] yielded an IC50 of 0.029 nM.

`COC(=O)N[C@H](C(=O)N1CCC[C@H]1C(=O)NC(=O)Nc1ccc(-c2ccc(-c3cnc([C@@H]4CCCN4C(=O)[C@@H](NC(=O)OC)C(C)C)[nH]3)cc2)cc1F)C(C)C` [Compound I-12, ((S)-1-{(S)-2-[5-(3′-Fluoro-4′-{3-[(S)-1-((S)-2-methoxycarbonylamino-3-methyl-butyryl)-pyrrolidine-2-carbonyl]-ureido}-biphenyl-4-yl)-1H-imidazol-2-yl]-pyrrolidine-1-carbonyl}-2-methyl-propyl)-carbamic acid methyl ester] displayed a 50% inhibitory concentration (IC50) of 0.064 nM.
